Test results taken from ChEMBL document CHEMBL1641434, “Topical anti-inflammatory activity of boropinic acid and its natural and semi-synthetic derivatives” (2011).

Tests used:
Type in all cases: functional
Mus musculus [1] = test: Antiinflammatory activity in CD1 mouse assessed as inhibition of croton oil-induced ear edema at 0.3 umol administered topically per cm'2 of ear relative to control
Mus musculus [2] = test: Antiinflammatory activity in CD1 mouse assessed as inhibition of croton oil-induced ear edema at 0.1 umol administered topically per cm'2 of ear relative to control
Mus musculus [3] = test: Antiinflammatory activity in CD1 mouse assessed as inhibition of croton oil-induced ear edema per cm'2 administered topically
Mus musculus [4] = test: Antiinflammatory activity in CD1 mouse assessed as inhibition of croton oil-induced ear edema at 1 umol administered topically per cm'2 of ear relative to control

Row | Compound | inhibition (INH) (Mus musculus [1]) | inhibition (INH) (Mus musculus [2]) | ID50 (Mus musculus [3]) | inhibition (INH) (Mus musculus [4])
1 | CC(C)=CCOc1ccc(/C=C/C(=O)O)cc1F | 39% |  |  | 
2 | CC(C)=CCOc1ccc(/C=C/C(=O)O)cc1Cl | 49% | 25% | 0.26 µmol | 91%
3 | CC(C)=CCOc1ccc(/C=C/C(=O)O)cc1Br | 19% |  |  | 
4 | CC(C)=CCOc1ccc(/C=C/C(=O)O)cc1I | 67% | 30% | 0.2 µmol | 88%
5 | CC(C)=CCOc1ccc(/C=C/C(=O)O)cc1C | 23% |  |  | 
6 | CC(C)=CCOc1ccc(/C=C/C(=O)O)cc1[N+](=O)[O-] | 68% | 33% | 0.18 µmol | 91%
7 | CC(C)=CCOc1ccc(/C=C/C(=O)O)cc1N | 43% | 22% | 0.33 µmol | 81%
8 | CC(C)=CCOc1ccc(/C=C/C(=O)O)cc1 | 30% | 13% | 0.5 µmol | 67%
9 | COc1cc(/C=C/C(=O)O)ccc1OCC=C(C)C [BOROPINIC ACID] | 36% | 12% | 0.72 µmol | 55%
10 | COc1ccc2c(c1)c(CC(=O)O)c(C)n2C(=O)c1ccc(Cl)cc1 [INDOMETHACIN] | 62% | 26% | 0.23 µmol | 87%
11 | CC(Cc1ccc(O)c(O)c1)C(C)Cc1ccc(O)c(O)c1 (stereo not given) [NORDIHYDROGUAIARETIC ACID] | 33% | 19% | 0.54 µmol | 65%
